One data set is described as follows: LD50 test. As to conditions: in vivo; read-out: LD50 (lethal dose 50%). An excerpt:
LD50 (lethal dose 50%) of the glycyrrhetinic acid derivative (the compound of the above formula (2)) of the disclosed embodiment and LD50 of carbenoxolone were compared.

Data set [1] relates to glutamate concentration in cerebrospinal fluid. Description: Cerebrospinal fluid glutamate concentration determination (HPLC). Particulars: 14th day after CCI operation, compared with Gabapentin group. Format: in vivo, mouse. The method, then:
On the 14th day after the CCI operation, cerebrospinal fluid were collected from the foramen magnum of the above-mentioned mice, and the glutamate concentration was measured quantitatively with HPLC.

In data set [2] the test system is human amyloid β1-42 peptide (Aβ) intraventricularly injected mice. Description: Fear conditioned learning test in Alzheimer's disease model mice. Format: in vivo, mouse. As to conditions: 20 mg/kg intraperitoneal three times a week; Aβ 300 pmol/3 μl intraventricular; vs physiological saline group; p<0.05. The method, then:
The assessment of drug efficacy of the glycyrrhetinic acid derivative of the disclosed embodiment (Compound No. 37 group) was conducted using, as an animal model of neurodegenerative diseases, the human amyloid β1-42 peptide (Aβ) intraventricularly injected mice (Doi et al., Am J Pathol. 175 (5): 2121-32, 2009), which are widely used as an Alzheimer's disease model.
The mice were intraventricularly injected with 300 pmol/3 μl of Aβ, and from the day of the injection, they were intraperitoneally administered with 20 mg/kg body weight of the glycyrrhetinic acid derivative (Compound No. 37 group) of the disclosed embodiment or the same volume of physiological saline (vehicle group) three times a week. For control group was used wild type mouse (G57BL/6J) of the same age. Behavioral analysis was performed using the following fear conditioned learning test.
Associative learning was assessed using a fear conditioned learning test (Mouri et al., FASEB J. 21, 2135-2148, 2007; Nagai et al., FASEB J. 17, 50-52, and 2003). The mice were placed in a transparent acrylic cage with a stainless steel grid installed therein and were subjected to a 20 second tone stimulus (80 dB) and to an electric stimulus (0.6 mA) in the last 5 seconds. A set of this combination stimulus was repeated 4 times with 15 second intervals, thereby causing fear conditioning. […]

Data set [3] relates to human superoxide dismutase 1 (SOD1) G93A mutant transgenic mice. Nature of the data set: Survival extension effect in ALS acute-onset model mice (Kaplan-Meier). Format: in vivo, mouse. Particulars: 20 mg/kg intraperitoneal three times a week from 7-8 weeks of age; p<0.05. The method, then: The assessment of drug efficacy was conducted using, as an animal model of neurodegenerative diseases, the human superoxide dismutase 1 (SOD1) G93A mutant transgenic mice, which are widely used as an acute-onset model of amyotrophic lateral sclerosis (ALS).
Starting at 7-8 weeks of age, which is considered to be an early ALS onset period, the mice were intraperitoneally administered with 20 mg/kg body weight of the glycyrrhetinic acid derivative of the disclosed embodiment (Compound No. 37 group) or the same volume of physiological saline (saline group) three times a week.
The survival analysis was performed using the Kaplan-Meier method.

A further data set is described as follows: physchem. Format: physicochemical.
The test system of data set [4] is C57BL/6J mouse with chronic constriction injury (CCI) of sciatic nerve. Description: Pain behavior test (mechanical allodynia), chronic constriction injury (CCI) of sciatic nerve, von Frey hair. Format: in vivo. Particulars: once a day from 7th to 14th day after CCI operation, Gabapentin 30 mg/kg i.p. The procedure:
Chronic pain was caused by performing a chronic constriction injury (CCI) operation of sciatic nerve on a hind leg of a C57BL/6J mouse (8 week old, n=4 in each group). Threshold values of mechanical strength which indicated avoidance behavior were recorded by pressing a von Frey hair against the foot pad of the mouse's hind leg (from the previous day of the CCI operation to the 14th day after the operation).
Regarding drugs, the below drugs were administered once a day from the 7th day to the 14th day after the operation, and the therapeutic effects were studied. In this example, “Compound No. 37” is a compound represented by the above formula (2).
Control: the same volume of physiological saline
Gabapentin: 30 mg/kg, intraperitoneal administration
Compound No. 37: 100 mg/kg, subcutaneous administration
Compound No. 37: 20 mg/kg, subcutaneous administration
Compound No. 37: 20 mg/kg, intraperitoneal administration

The nature of data set [5]: Intracerebral migration after administration via various paths. Format: in vivo, mice. An excerpt: In this respect, the presently disclosed embodiment has a significant effect.

The term LD50 denotes the dose at which mortality reaches 50%. A word on the logD: it is lipophilicity at a set pH, counting ionised and neutral species. Lower therefore signals a more hydrophilic compound.

Regarding `CC1(C)[C@@H](OC(=O)CCC(=O)O)CC[C@]2(C)[C@H]3C(=O)C=C4[C@@H]5C[C@@](C)(C(=O)O)CC[C@]5(C)CC[C@@]4(C)[C@]3(C)CC[C@@H]12` [carbenoxolone, reference compound], in “LD50 test”, the 50% lethal dose (LD50) was found to be 100 mg/kg.
`C[n+]1cccc(C(=O)N[C@H]2CC[C@]3(C)[C@H]4C(=O)C=C5[C@@H]6C[C@@](C)(C(=O)O)CC[C@]6(C)CC[C@@]5(C)[C@]4(C)CC[C@H]3C2(C)C)c1` [Compound No. 37]: the “glutamate concentration in the cerebrospinal fluid” value in data set [1] (20 mg/kg intraperitoneal) is “a decrease of the glutamate concentration in the cerebrospinal fluid, which was equal to or more than that shown in Gabapentin group”; in data set [1] (20 mg/kg subcutaneous), “a decrease of the glutamate concentration in the cerebrospinal fluid, which was equal to or more than that shown in Gabapentin group”; in data set [1] (100 mg/kg subcutaneous), “a decrease of the glutamate concentration in the cerebrospinal fluid, which was equal to or more than that shown in Gabapentin group”. The “freezing behavior time in the contextual dependency test (memory disorder improvement)” value in data set [2] is reported as “significantly moderated the observed reduction in freezing behavior time”. Moreover, in data set [3], the “extension of survival on average vs saline group” value is reported as “about 17 days”. In the data set “physchem”, the logD stood at 2.94. Further, the “pain threshold value compared to Gabapentin group” value in data set [4] (20 mg/kg intraperitoneal) and in data set [4] (100 mg/kg subcutaneous) was “significant increases of pain threshold values” each time. Besides, the delivery into brain result in data set [5] (injected hypodermically, model mice) is “is delivered into brain”; in data set [5] (intraarterial injection), “delivered into brain”; in data set [5] (intravenous injection), “delivered into brain”. The “reaching central nervous system and medicinal effect” value in data set [5] (intraperitoneal injection, model mice) was “reach a central nervous system and exert a medicinal effect”. The LD50 in “LD50 test” is above 5000 mg/kg.

For the origin of these results see patent US9796751B2, “Glycyrrhetinic acid derivative and use thereof” (INI CORPORATION, priority 2013, dated 2017).
